Data reported in patent US8962844B2, “1,3,4-oxadiazole and 1,3,4-thiadiazole β-lactamase inhibitors” (priority 2012, dated 2015).
Counter-ions that a name gives are not always drawn.

Tests used:
[1] = test system: bacterial strains that express the class D cephalosporinase OXA-15; assay: Standard BLI potentiation MIC / synergy MIC (sMIC) assays run in the presence of a β-lactam, OXA-15 expressing strains; assay type: cell-based, E. coli; details: BLI in combination with a β-lactam; comparison with Avibactam (comparator compound CCC)
Description: (§1) Unless otherwise indicated, the activity of the BLI compounds can be described by the MIC value obtained from a Synergy MIC assay or a BLI potentiation assay (e.g as described herein), both of which are run in the presence of a β-lactam.
(§2) A set of β-lactamase expressing isogenic E. coli strains was constructed by cloning a β-lactamase gene into a customized derivative of pBR322 (GenBank Accession Number J01749) and transforming the engineered plasmids into E. coli. The NdeI restriction site within the plasmid backbone of pBR322 was removed to generate pBR322 ΔNdeI. The pBR322 ΔNdeI vector itself, minus the blaTEM-1 gene, was amplified using two primers: (1) pBR-Pbla 5′-cgcatatgactettectttttcaatattattg-3, SEQ ID 1, a primer with an engineered NdeI restriction site at the 3′ end of the blaTEM-1 promoter and (2) pBR-vec-1 5′-[…]-3′, SEQ ID 2, a primer with an engineered BamHI restriction site at the 3′ end of the blaTEM-1 open reading frame. The chloramphenicol resistance gene, cat, was generated by PCR amplification from pKD3 (GenBank Accession Number AY048742) using primers with an engineered NdeI restriction site at the 5′ end (Pbla-cat 5′-[…]-3′, SEQ ID 3) and an engineered BamHI restriction site at the 3′ end (Vec-1-cat 5′-[…]-3′, SEQ ID 4) of the resistance gene. The two PCR products, pBR322 ΔNdeI and cat were ligated together generating pBR-CBST (pBR322 ΔNdeI ΔTEM-1::cat Seq. ID 5) which retains both the pBR322 tetracycline resistance cassette, tetA, and the plasmid origin of replication but the blaTEM-1 gene was replaced by the cat gene.
(§3) Using this engineering strategy a number of plasmids producing β-lactamase genes from different classes (see below) were generated using synthetic genes with an engineered NdeI restriction site at the 5′ end and BamHI restriction site at the 3′ end of each gene (GenScript). Both the synthetic β-lactamase genes and cat gene were ligated into the NdeI/BamHI sites of the pBR322 ΔNdeI PCR product and transformed into electrocompetent E. coli ElectroMax DH10B (Invitrogen/Life Technologies). E. coli DH10B harboring the recombinant plasmids were selected on LB agar (supplemented with 25 μg/mL tetracycline) and single isolated colonies were then inoculated into 5 mL LB media (supplemented with 25 μg/mL tetracycline), and incubated at 37° C. with aeration (250 rpm) for 18 hrs. The cultures were frozen back at −80° C. in 20% glycerol. The DNA sequence of the cloned β-lactamase genes was confirmed. The β-lactamase gene expression in the recombinant E. coli strains was driven by the blaTEM-1 promoter in the pBR-CBST plasmid and was characterized by MIC profiling of the E. coli recombinant strains against comparator β-lactam/BLI combinations in broth microdilution assay.
(§4) The experimental protocol was performed according to Clinical and Laboratory Standards Institute (CLSI) guidelines with modifications as described below (CLSI guidelines can be derived from the CLSI document M07-A9 published in January 2012: “Methods for Dilution Antimicrobial Susceptibility Tests for Bacteria That Grow Aerobically; Approved Standard-Ninth Edition”).
(§5) To prepare for MIC testing, frozen glycerol stocks of clinical isolates (Klebsiella pneumoniae, Eschericia coli, Enterobacter spp, Citrobacter spp, or Pseudomonas aeruginosa) were used to streak for isolated colonies on rich, non-selective, tryptic soy agar containing 5% sheep's blood (TSAB). Frozen glycerol stocks of laboratory engineered, isogenic E. coli strains, which contain cloned β-lactamase expressing plasmids were used to streak for isolated colonies on rich, selective LB agar supplemented with 25 μg/mL tetracycline to maintain the plasmid. All strains were incubated at 37° C. for 18-24 hrs.
(§6) On the day of testing, primary cultures were started by scraping off 5-10 colonies from the TSAB plates containing clinical strains or the tetracycline supplemented LB plates containing engineered strains. […]

[2] = test system: bacterial strains that express KPC β-lactamases; assay: Standard BLI potentiation MIC / synergy MIC (sMIC) assays run in the presence of a β-lactam, KPC expressing strains; assay type: cell-based; details: more active for at least one KPC strain and/or better spectrum of activity than Avibactam; BLI in combination with a β-lactam
Description: as §1, §2, §3, §4, §5, §6

Compound	activity against bacterial strains that express the class D cephalosporinase OXA-15, compared with Avibactam [1]	activity and/or spectrum of activity against bacterial strains that express KPC β-lactamases, compared with Avibactam [2]
O=C1N2C[C@@H](CC[C@H]2c2nnco2)N1OS(=O)(=O)O [Compound 701, (2S,5R)-2-(1,3,4-oxadiazol-2-yl)-7-oxo-1,6-diazabicyclo[3.2.1]octan-6-yl hydrogen sulfate]	more active than Avibactam	more active than Avibactam
NCc1nnc([C@@H]2CC[C@@H]3CN2C(=O)N3OS(=O)(=O)O)o1 [Compound 702, (2S,5R)-2-(5-(aminomethyl)-1,3,4-oxadiazol-2-yl)-7-oxo-1,6-diazabicyclo[3.2.1]octan-6-yl hydrogen sulfate]	more active than Avibactam	more active than Avibactam
NCCc1nnc([C@@H]2CC[C@@H]3CN2C(=O)N3OS(=O)(=O)O)o1 [Compound 703, (2S,5R)-2-(5-(2-aminoethyl)-1,3,4-oxadiazol-2-yl)-7-oxo-1,6-diazabicyclo[3.2.1]octan-6-yl hydrogen sulfate]	more active than Avibactam	more active than Avibactam
N=C(N)NCCc1nnc([C@@H]2CC[C@@H]3CN2C(=O)N3OS(=O)(=O)O)o1 [Compound 705, (2S,5R)-2-(5-(2-guanidinoethyl)-1,3,4-oxadiazol-2-yl)-7-oxo-1,6-diazabicyclo[3.2.1]octan-6-yl hydrogen sulfate]	more active than Avibactam	more active than Avibactam
NC(=O)c1nnc([C@@H]2CC[C@@H]3CN2C(=O)N3OS(=O)(=O)O)o1 [Compound 706, (2S,5R)-2-(5-carbamoyl-1,3,4-oxadiazol-2-yl)-7-oxo-1,6-diaza-bicyclo[3.2.1]octan-6-yl hydrogen sulfate]	more active than Avibactam	more active than Avibactam
O=C1N2C[C@@H](CC[C@H]2c2nnc(C3CNC3)o2)N1OS(=O)(=O)O [Compound 708, (2S,5R)-2-(5-(azetidin-3-yl)-1,3,4-oxadiazol-2-yl)-7-oxo-1,6-diazabicyclo[3.2.1]octan-6-yl hydrogen sulfate]	more active than Avibactam	more active than Avibactam
N=C(N)N1CC(c2nnc([C@@H]3CC[C@@H]4CN3C(=O)N4OS(=O)(=O)O)o2)C1 [Compound 709, (2S,5R)-2-(5-(1-carbamimidoylazetidin-3-yl)-1,3,4-oxadiazol-2-yl)-7-oxo-1,6-diazabicyclo[3.2.1]octan-6-yl hydrogen sulfate]	more active than Avibactam	more active than Avibactam
O=C1N2C[C@@H](CC[C@H]2c2nnc(C3CCNC3)o2)N1OS(=O)(=O)O (stereo partly drawn) [Compound 710, (2S,5R)-7-oxo-2-(5-(pyrrolidin-3-yl)-1,3,4-oxadiazol-2-yl)-1,6-diazabicyclo[3.2.1]octan-6-yl hydrogen sulfate]	more active than Avibactam	more active than Avibactam
O=C1N2C[C@@H](CC[C@H]2c2nnc(C3CCNCC3)o2)N1OS(=O)(=O)O [Compound 711, (2S,5R)-7-oxo-2-(5-(piperidin-4-yl)-1,3,4-oxadiazol-2-yl)-1,6-diazabicyclo[3.2.1]octan-6-yl hydrogen sulfate]	more active than Avibactam	more active than Avibactam
NCCCc1nnc([C@@H]2CC[C@@H]3CN2C(=O)N3OS(=O)(=O)O)o1 [Compound 720, (2S,5R)-2-(5-(3-aminopropyl)-1,3,4-oxadiazol-2-yl)-7-oxo-1,6-diazabicyclo[3.2.1]octan-6-yl hydrogen sulfate]	more active than Avibactam	more active than Avibactam
N=C(N)NCc1nnc([C@@H]2CC[C@@H]3CN2C(=O)N3OS(=O)(=O)O)s1 [Compound 721, (2S,5R)-2-(5-(guanidinomethyl)-1,3,4-thiadiazol-2-yl)-7-oxo-1,6-diazabicyclo[3.2.1]octan-6-yl hydrogen sulfate]	more active than Avibactam	more active than Avibactam
CNCCc1nnc([C@@H]2CC[C@@H]3CN2C(=O)N3OS(=O)(=O)O)o1 [Compound 722, (2S,5R)-2-(5-(2-(methylamino)ethyl)-1,3,4-oxadiazol-2-yl)-7-oxo-1,6-diazabicyclo[3.2.1]octan-6-yl hydrogen sulfate]	more active than Avibactam	more active than Avibactam
N=C(N)NCC1(c2nnc([C@@H]3CC[C@@H]4CN3C(=O)N4OS(=O)(=O)O)o2)CC1 [Compound 723, (2S,5R)-2-(5-(1-(guanidinomethyl)cyclopropyl)-1,3,4-oxadiazol-2-yl)-7-oxo-1,6-diazabicyclo[3.2.1]octan-6-yl hydrogen sulfate]	more active than Avibactam	more active than Avibactam
NC1(Cc2nnc([C@@H]3CC[C@@H]4CN3C(=O)N4OS(=O)(=O)O)o2)CC1 [Compound 724, (2S,5R)-2-(5-((1-aminocyclopropyl)methyl)-1,3,4-oxadiazol-2-yl)-7-oxo-1,6-diazabicyclo[3.2.1]octan-6-yl hydrogen sulfate]	more active than Avibactam	more active than Avibactam
NC1CCN(CCc2nnc([C@@H]3CC[C@@H]4CN3C(=O)N4OS(=O)(=O)O)o2)CC1 [Compound 775, (2S,5R)-2-(5-(2-(4-aminopiperidin-1-yl)ethyl)-1,3,4-oxadiazol-2-yl)-7-oxo-1,6-diazabicyclo[3.2.1]octan-6-yl hydrogen sulfate]		more active than Avibactam
O=C1N2C[C@@H](CC[C@H]2c2nnc(N3CCNCC3)s2)N1OS(=O)(=O)O [Compound 797, (2S,5R)-7-oxo-2-(5-(piperazin-1-yl)-1,3,4-thiadiazol-2-yl)-1,6-diazabicyclo[3.2.1]octan-6-yl hydrogen sulfate]	more active than Avibactam	
